4 compounds from patent US20120034320A1, “Skin Penetration Composition” (DOMINION RESOURCES, UNLIMITED, LLC, priority 2010, published 2012) can be followed below.

The test system of one assay is fibromyalgia. Nature of the assay: Physician observation, Patient A: fibromyalgia. It is filed as in vivo, human. The following applies: Relievz lotion twice daily to affected areas, pregabalin 400 mg daily, other products as previously used.
In assay [1] the test system is sciatica and neuropathy (diabetic neuropathy). Nature of the assay: Physician observation, Patient B: sciatica and diabetic neuropathy. In kind it is in vivo, human. The following applies: lotion applied to affected areas. The source says: The patient continues to use Relievz™ lotion daily.

Molecules are shown by their SMILES. Where a name gives a salt, the structure may show the parent alone.

As to `CNCC[C@H](Oc1cccc2ccccc12)c1cccs1` [Cymbalta®, duloxetine HCl], the “relief of fibromyalgia symptoms” value in the assay on fibromyalgia was “no relief”.

`NCC1(CC(=O)O)CCCCC1` [gabapentin]: the pain and ambulation entry in assay [1] is reported as “continued pain”.

`CC(C)C[C@H](CN)CC(=O)O` [pregabalin]: the “relief of fibromyalgia symptoms” value in the assay with fibromyalgia is on record as “no relief”.

Turning to `CC(C)C[C@H](CN)CC(=O)O` [pregabapentin], the pain and ambulation result in assay [1] was “continued pain”.
